# Source: the NIST ThermoML archive (doi:10.1016/j.jct.2013.08.034)
# Numbers after ± are expanded uncertainties.
# Legend:
# [1] = Liquid; for viscosity / electrical conductivity: 101 kPa; for viscosity: Cone and plate viscometry; for mass density: 101.33 kPa, Vibrating tube method; for electrical conductivity: Conductivity Meter Jenco 3107
# [2] = xn = mol fraction of the nth substance listed; settings: 101 kPa, Liquid, x1 = 1; for electrical conductivity: Conductivity Meter Jenco 3107; for viscosity: Cone and plate viscometry
smiles,measurement,setting,value
"CC1COC(=O)O1 (configuration not stated) [4-methyl-1,3-dioxolan-2-one]",viscosity,[1]; 293.15 K,2.86 ± 0.29 mPa·s
same,mass density,[1]; 293.15 K,1204.81 ± 0.41 kg/m3
same,viscosity,[1]; 298.15 K,2.65 ± 0.27 mPa·s
same,mass density,[1]; 298.15 K,1199.02 ± 0.4 kg/m3
same,viscosity,[1]; 303.15 K,2.44 ± 0.24 mPa·s
same,mass density,[1]; 303.15 K,1194 ± 0.4 kg/m3
same,viscosity,[1]; 308.15 K,2.23 ± 0.22 mPa·s
same,mass density,[1]; 308.15 K,1188.57 ± 0.39 kg/m3
same,viscosity,[1]; 313.15 K,2.05 ± 0.21 mPa·s
same,mass density,[1]; 313.15 K,1183.11 ± 0.39 kg/m3
same,viscosity,[1]; 318.15 K,1.9 ± 0.19 mPa·s
same,mass density,[1]; 318.15 K,1177.55 ± 0.38 kg/m3
same,viscosity,[1]; 323.15 K,1.78 ± 0.18 mPa·s
same,mass density,[1]; 323.15 K,1171.96 ± 0.38 kg/m3
same,viscosity,[1]; 328.15 K,1.63 ± 0.16 mPa·s
same,viscosity,[1]; 333.15 K,1.54 ± 0.15 mPa·s
CCCC[n+]1ccn(C)c1.O=S(=O)([N-]S(=O)(=O)C(F)(F)F)C(F)(F)F,electrical conductivity,[1]; 293.15 K,0.337 ± 0.01 S/m
same,viscosity,[1]; 293.15 K,62.08 ± 6.2 mPa·s
same,mass density,[1]; 293.15 K,1439.27 ± 0.62 kg/m3
same,electrical conductivity,[1]; 298.15 K,0.4 ± 0.012 S/m
same,viscosity,[1]; 298.15 K,50.05 ± 5 mPa·s
same,mass density,[1]; 298.15 K,1434.3 ± 0.61 kg/m3
same,electrical conductivity,[1]; 303.15 K,0.472 ± 0.014 S/m
same,viscosity,[1]; 303.15 K,41.24 ± 4.2 mPa·s
same,mass density,[1]; 303.15 K,1429.4 ± 0.61 kg/m3
same,electrical conductivity,[1]; 308.15 K,0.552 ± 0.017 S/m
same,viscosity,[1]; 308.15 K,33.65 ± 3.4 mPa·s
same,mass density,[1]; 308.15 K,1424.57 ± 0.6 kg/m3
same,electrical conductivity,[1]; 313.15 K,0.64 ± 0.019 S/m
same,viscosity,[1]; 313.15 K,28.28 ± 2.8 mPa·s
same,mass density,[1]; 313.15 K,1419.61 ± 0.6 kg/m3
same,electrical conductivity,[1]; 318.15 K,0.733 ± 0.022 S/m
same,viscosity,[1]; 318.15 K,23.91 ± 2.4 mPa·s
same,mass density,[1]; 318.15 K,1414.67 ± 0.6 kg/m3
same,electrical conductivity,[1]; 323.15 K,0.835 ± 0.025 S/m
same,viscosity,[1]; 323.15 K,20.64 ± 2.1 mPa·s
same,mass density,[1]; 323.15 K,1409.65 ± 0.59 kg/m3
same,electrical conductivity,[1]; 328.15 K,0.944 ± 0.028 S/m
same,viscosity,[1]; 328.15 K,17.9 ± 1.8 mPa·s
same,viscosity,[1]; 333.15 K,15.51 ± 1.6 mPa·s
CCCC[n+]1ccn(C)c1.O=S(=O)([N-]S(=O)(=O)C(F)(F)F)C(F)(F)F + CC1COC(=O)O1,electrical conductivity,[2]; 293.15 K,0.337 ± 0.01 S/m
same,viscosity,[2]; 293.15 K,62.08 ± 6.2 mPa·s
same,electrical conductivity,[2]; 298.15 K,0.4 ± 0.012 S/m
same,viscosity,[2]; 298.15 K,50.05 ± 5 mPa·s
same,electrical conductivity,[2]; 303.15 K,0.472 ± 0.014 S/m
same,viscosity,[2]; 303.15 K,41.24 ± 4.2 mPa·s
same,electrical conductivity,[2]; 308.15 K,0.552 ± 0.017 S/m
same,viscosity,[2]; 308.15 K,33.65 ± 3.4 mPa·s
same,electrical conductivity,[2]; 313.15 K,0.64 ± 0.019 S/m
same,viscosity,[2]; 313.15 K,28.28 ± 2.8 mPa·s
same,electrical conductivity,[2]; 318.15 K,0.733 ± 0.022 S/m
same,viscosity,[2]; 318.15 K,23.91 ± 2.4 mPa·s
same,electrical conductivity,[2]; 323.15 K,0.835 ± 0.025 S/m
same,viscosity,[2]; 323.15 K,20.64 ± 2.1 mPa·s
same,electrical conductivity,[2]; 328.15 K,0.944 ± 0.028 S/m
same,viscosity,[2]; 328.15 K,17.9 ± 1.8 mPa·s
same,viscosity,[2]; 333.15 K,15.51 ± 1.6 mPa·s
